≈ marks a conversion by molar mass, not a printed value. Calls of active or inactive are those of the source. The rule behind the calls is not given here.
Legend:
[1] = system: Candida albicans; assay: Antifungal activity against Candida albicans ATCC 10231 by bioautography TLC plate assay based MTT method; assay type: functional, organism-based
[2] = system: Cryptococcus neoformans; assay: Antifungal activity against Cryptococcus neoformans ATCC 32264 by bioautography TLC plate assay based MTT method; assay type: functional, organism-based
[3] = system: Cryptococcus neoformans; assay: Antifungal activity against Cryptococcus neoformans ATCC 32264 assessed as microbial growth inhibition after 48 hrs broth microdilution method; assay type: functional
[4] = system: Candida albicans; assay: Antifungal activity against Candida albicans ATCC 10231 assessed as microbial growth inhibition after 48 hrs broth microdilution method; assay type: functional, organism-based
[5] = system: Candida albicans; assay: Antifungal activity against Candida albicans ATCC 10231 assessed as microbial growth inhibition at 15.6 ug/mL after 48 hrs broth microdilution method; assay type: functional; conditions: ATCC 10231, 48 h, read-out: GI
[6] = system: Candida albicans; assay: Antifungal activity against Candida albicans ATCC 10231 assessed as microbial growth inhibition at 62.5 ug/mL after 48 hrs broth microdilution method; assay type: functional; conditions: ATCC 10231, 48 h, read-out: GI
[7] = system: Candida albicans; assay: Antifungal activity against Candida albicans ATCC 10231 assessed as microbial growth inhibition at 125 ug/mL after 48 hrs broth microdilution method; assay type: functional; conditions: ATCC 10231, 48 h, read-out: GI
[8] = system: Cryptococcus neoformans; assay: Antifungal activity against Cryptococcus neoformans ATCC 32264 assessed as microbial growth inhibition at 15.6 ug/mL after 48 hrs broth microdilution method; assay type: functional; conditions: ATCC 32264, 48 h, read-out: GI
[9] = system: Cryptococcus neoformans; assay: Antifungal activity against Cryptococcus neoformans ATCC 32264 assessed as microbial growth inhibition at 31.25 ug/mL after 48 hrs broth microdilution method; assay type: functional; conditions: ATCC 32264, 48 h, read-out: GI
[10] = system: Cryptococcus neoformans; assay: Antifungal activity against Cryptococcus neoformans ATCC 32264 assessed as microbial growth inhibition at 62.5 ug/mL after 48 hrs broth microdilution method; assay type: functional; conditions: ATCC 32264, 48 h, read-out: GI
[11] = system: Candida albicans; assay: Antifungal activity against Candida albicans ATCC 10231 assessed as microbial growth inhibition at => 125 ug/mL after 48 hrs broth microdilution method; assay type: functional
[12] = system: Cryptococcus neoformans; assay: Antifungal activity against Cryptococcus neoformans ATCC 32264 assessed as microbial growth inhibition at => 125 ug/mL after 48 hrs broth microdilution method; assay type: functional
[13] = system: Candida albicans; assay: Antifungal activity against Candida albicans ATCC 10231 assessed as microbial growth inhibition at 250 ug/mL after 48 hrs broth microdilution method; assay type: functional, organism-based
[14] = system: Cryptococcus neoformans; assay: Antifungal activity against Cryptococcus neoformans ATCC 32264 assessed as microbial growth inhibition at 250 ug/mL after 48 hrs broth microdilution method; assay type: functional, organism-based
[15] = system: Candida albicans; assay: Antifungal activity against Candida albicans ATCC 10231 assessed as microbial growth inhibition at 50 to 300 ug/mL after 48 hrs broth microdilution method; assay type: functional, organism-based
[16] = system: Cryptococcus neoformans; assay: Antifungal activity against Cryptococcus neoformans ATCC 32264 assessed as microbial growth inhibition at 50 to 300 ug/mL after 48 hrs broth microdilution method; assay type: functional, organism-based

Question: C=C1[C@@H]2[C@H]3OC(=O)[C@@H](C)[C@@H]3CCC(=C)[C@@H]2C[C@@H]1O was tested. Which “growth inhibition (GI)” value [1] did it give?
Answer: Active

Question: What about the “growth inhibition (GI)” value [2] of the same molecule?
Answer: Active

Question: What about the “growth inhibition (GI)” value [3] of the same molecule?
Answer: Active

Question: And the “growth inhibition (GI)” value [4]?
Answer: Active

Question: For C=C1[C@H]2C[C@H]2[C@]2(C)C=C3OC(=O)C(COC(C)=O)=C3C[C@@H]12, which “growth inhibition (GI)” value [1] is on record?
Answer: Active

Question: What about the “growth inhibition (GI)” value [2] of the same molecule?
Answer: Active

Question: And the inhibition of growth at 15.6 µg/mL [5]?
Answer: 50%

Question: What about the inhibition of growth at 62.5 µg/mL [6] of the same molecule?
Answer: 80%

Question: What about the inhibition of growth at 125 µg/mL [7] of the same molecule?
Answer: 100%

Question: And the inhibition of growth at 15.6 µg/mL [8]?
Answer: 50%

Question: What about the inhibition of growth at 31.25 µg/mL [9] of the same molecule?
Answer: 80%

Question: And the inhibition of growth at 62.5 µg/mL [10]?
Answer: 100%

Question: With C=C1[C@H]2C[C@H]2[C@]2(C)C=C3OC(=O)C(CO)=C3C[C@@H]12 as the molecule, how does the “growth inhibition (GI)” value [1] read?
Answer: Active

Question: And the “growth inhibition (GI)” value [2]?
Answer: Active

Question: And the “growth inhibition (GI)” value [11]?
Answer: 50%

Question: What about the “growth inhibition (GI)” value [12] of the same molecule?
Answer: 50%

Question: For C=C1[C@@H]2[C@H]3OC(=O)C(=C)[C@@H]3CCC(=C)[C@@H]2C[C@@H]1O [ZALUZANIN C], which “growth inhibition (GI)” value [1] is on record?
Answer: Active

Question: And the MIC ([3]; ATCC 32264, 48 h)?
Answer: 125 µg/mL (≈ 507 µM)

Question: And the “growth inhibition (GI)” value [4]?
Answer: Active

Question: For C=C1[C@H]2C[C@H]2[C@]2(C)[C@@H]3O[C@@]34OC(=O)C(COC(C)=O)=C4C[C@@H]12, which “growth inhibition (GI)” value [1] is on record?
Answer: Active

Question: What about the “growth inhibition (GI)” value [2] of the same molecule?
Answer: Active

Question: What about the “growth inhibition (GI)” value [13] of the same molecule?
Answer: inactive

Question: What about the “growth inhibition (GI)” value [14] of the same molecule?
Answer: inactive

Question: How did the “growth inhibition (GI)” value [15] turn out when C=C1[C@H]2C[C@H]2[C@]2(C)C[C@@H]3OC(=O)C(CO)=C3C[C@@H]12 was run?
Answer: inactive

Question: And the “growth inhibition (GI)” value [16]?
Answer: inactive

Reference: ChEMBL document CHEMBL3352037, “Antifungal terpenoids from Hyalis argentea var. latisquama” (2014)
